# Laboratory results as given in patent US8585965B2, “Sterilization of polymeric materials” (priority 2006, dated 2013).
# Assays:
# Type in all cases: cell-based
# [1] = tested on: Enterococcus faecalis ATCC 29212; experiment: Radiosensitization of bacteria coated onto a material surface (sterile 12 mm paper disks), gamma irradiation, cfu by dilution plating; settings: for enhancement of the killing efficiency of the irradiation / cfu recovered, 0.3 kGy: 0.3 kGy; for enhancement of the killing efficiency of the irradiation: paper disks; for Post-Treatment CFU Added: 2 hours at room temperature; for cfu recovered, 0.3 kGy / cfu recovered, 0 kGy: paper disk; for cfu recovered, 0 kGy: not irradiated
# Experimental: Enterococcus faecalis ATCC 29212, grown overnight in tryptic soy broth at 37° C. without shaking, were centrifuged and resuspended in 2% glucose at a concentration of about 5×10^7 cfu/ml. […] The cfu contained in each sample were quantified by dilution plating and the values are listed as “post-treatment cfu added.” None of the radiosensitizer treatments alone appeared to have a significant adverse effect on the bacteria.
# Following radiosensitizer treatment, 0.05 ml of each mixture (containing approximately 1×10^6 cfu) was spotted onto sterile 12 mm paper disks and the disks air dried for 30 minutes. The disks were then placed in sterile tubes and left untreated or irradiated with 0.3 kGy. The cfu were recovered from the disks by vortexing with glass beads for 1 minute in 0.85% saline with 0.35 g/l lecithin and 2.5 ml/l Tween 80. Quantification of the cfu was then performed by dilution plating onto tryptic soy agar.
# [2] = tested on: Enterococcus faecalis ATCC 29212; experiment: Radiosensitization of bacteria coated onto Spongostan gelatin sponge (Example 4); settings: 50 μg/ml methylene blue
# Experimental: (§1) Enterococcus faecalis ATCC 29212, grown overnight in tryptic soy broth at 37° C. without shaking, were centrifuged and resuspended in phosphate buffered saline (PBS) at a concentration of about 5×10^8 cfu/ml. […] The cfu contained in each sample after this incubation were quantified by dilution plating.
# Following radiosensitizer treatment, 0.01 ml of each mixture (containing approximately 5×10^8 cfu) was spotted onto nine 1 cm×1 cm squares of Spongostan® gelatin sponge that were then air dried for 60 minutes. (Spongostan® is a dry artificial sponge of fibrin prepared by clotting with thrombin, a foam or solution of fibrinogen. It is used in conjunction with thrombin as a hemostatic in surgery at sites where bleeding cannot be controlled by more common methods.) Triplicate samples were then placed in sterile tubes and left untreated or irradiated with 0.1 or 0.3 kGy. The cfu were recovered from the sponge by vortexing with glass beads for 1 minute in 0.85% saline with 0.35 g/l lecithin and 2.5 ml/l Tween 80. Quantification of the cfu was then performed by dilution plating onto tryptic soy agar.
# [3] = tested on: Enterococcus faecalis ATCC 29212; experiment: Radiosensitization of bacteria coated onto Prolene mesh (Example 3)
# Experimental: as §1
# Following radiosensitizer treatment, 0.01 ml of each mixture (containing approximately 5×10^8 cfu) was spotted onto nine 1 cm×1 cm squares of Prolene® mesh that were then air dried for 60 minutes. Triplicate samples were then placed in sterile tubes and left untreated or irradiated with 0.1 or 0.3 kGy. The cfu were recovered from the mesh by vortexing with glass beads for 1 minute in 0.85% saline with 0.35 g/l lecithin and 2.5 ml/l Tween 80. Quantification of the cfu was then performed by dilution plating onto tryptic soy agar.
# [4] = tested on: Enterococcus faecalis ATCC 29212; experiment: Radiosensitization of bacteria coated onto Vicryl mesh (Example 3); settings: for Avg CFU Recovered / Log Red v 0 kGy / Log Red v Control / Log Red v Inoculum: 50 μg/ml, Vicryl
# Experimental: as §1
# Following radiosensitizer treatment, 0.01 ml of each mixture (containing approximately 5×10^8 cfu) was spotted onto nine 1 cm×1 cm squares of Vicryl® mesh that were then air dried for 60 minutes. Triplicate samples were then placed in sterile tubes and left untreated or irradiated with 0.1 or 0.3 kGy. The cfu were recovered from the mesh by vortexing with glass beads for 1 minute in 0.85% saline with 0.35 g/l lecithin and 2.5 ml/l Tween 80. Quantification of the cfu was then performed by dilution plating onto tryptic soy agar.
# [5] = tested on: Enterococcus faecalis ATCC 29212; experiment: Radiosensitization of bacteria coated onto Vicryl mesh (Example 2), irradiation 0.1 or 0.2 kGy; design: Inoculum: dose or concentration left out as unconfirmed
# Experimental: Enterococcus faecalis ATCC 29212, grown overnight in tryptic soy broth at 37° C. without shaking, were centrifuged and resuspended in phosphate buffered saline (PBS) at a concentration of roughly 2×10^9 cfu/ml. […] The cfu contained in each sample after this incubation were quantified by dilution plating.
# Following radiosensitizer treatment, 0.01 ml of each mixture (containing approximately 2×10^7 cfu) was spotted onto nine 1 cm×1 cm squares of Vicryl® mesh that were then air dried for 60 minutes. Triplicate samples were then placed in sterile tubes and left untreated or irradiated with 0.1 or 0.2 kGy. The cfu were recovered from the meshes by vortexing with glass beads for 1 minute in 0.85% saline with 0.35 g/l lecithin and 2.5 ml/l Tween 80. Quantification of the cfu was then performed by dilution plating onto tryptic soy agar.
# [6] = 50 μg/ml methylene blue, 2 hours, no irradiation
# [7] = 50 μg/ml, 0.3 kGy, Prolene, triplicate samples
structure (smiles),measurement,setting,value
"O=C1O[C@H]([C@@H](O)CO)C(O)=C1O [Ascorbic Acid, ascorbic acid]",enhancement of the killing efficiency of the irradiation,[1],greatest effect
same,Percent Survival 0.3 vs. 0 kGy,[1]; Conc. 200 μg/ml,0.28%
same,Post-Treatment CFU Added,[1]; Conc. 200 μg/ml,8.55E+05 CFU
same,"cfu recovered, 0.3 kGy",[1]; Conc. 200 μg/ml,9 cfu
same,"cfu recovered, 0 kGy",[1]; Conc. 200 μg/ml,3270 cfu
"CN(C)c1ccc2nc3ccc(=[N+](C)C)cc-3sc2c1 [Methylene Blue, methylene blue]",cfu contained in sample after incubation,"[2]; 2 hours at room temperature, PBS, untreated 4.8×10^8",4.2×10^8 cfu/ml
same,effect of incubation on the bacterial number,"[2]; 2 hours, no irradiation",did not significantly affect the bacterial number
same,cfu contained in sample after incubation,"[3]; 50 μg/ml methylene blue, 2 hours at room temperature, PBS, suspension used for Prolene and Vicryl meshes, untreated 4.8×10^8",4.2×10^8 cfu/ml
same,effect of incubation on the bacterial number,[3]; [6],did not significantly affect the bacterial number
same,Inoculum,"[3]; 50 μg/ml methylene blue, spotted onto Prolene mesh",4.20E+06 CFU
same,Avg CFU Recovered,"[3]; 50 μg/ml, 0.0 kGy, Prolene",2.38E+03 CFU
same,Log Red v 0 kGy,"[3]; 50 μg/ml, 0.0 kGy, Prolene",0.0 Log
same,Log Red v Control,"[3]; 50 μg/ml, 0.0 kGy, Prolene",−1.5 Log
same,Log Red v Inoculum,"[3]; 50 μg/ml, 0.0 kGy, Prolene",−3.2 Log
same,Avg CFU Recovered,"[3]; 50 μg/ml, 0.3 kGy, Prolene",0.00E+00 CFU
same,Log Red v 0 kGy,"[3]; 50 μg/ml, 0.3 kGy, Prolene",−3.4 Log
same,Log Red v Control,"[3]; 50 μg/ml, 0.3 kGy, Prolene",−1.2 Log
same,Log Red v Inoculum,"[3]; 50 μg/ml, 0.3 kGy, Prolene",−6.6 Log
same,Plated CFU,[3]; [7],0.00E+00 CFU
same,Total CFU Recovered,[3]; [7],0.00E+00 CFU
same,"number of bacteria recovered, combination with irradiation compared to methylene blue or irradiation alone",[3]; Prolene mesh,significantly reduced the number of bacteria recovered
same,Inoculum,"[4]; 50 μg/ml methylene blue, spotted onto Vicryl mesh",4.20E+06 CFU
same,Avg CFU Recovered,[4]; 0.0 kGy,1.79E+04 CFU
same,Log Red v 0 kGy,[4]; 0.0 kGy,0.0 Log
same,Log Red v Control,[4]; 0.0 kGy,−1.2 Log
same,Log Red v Inoculum,[4]; 0.0 kGy,−2.4 Log
same,Avg CFU Recovered,[4]; 0.3 kGy,9.83E+01 CFU
same,Log Red v 0 kGy,[4]; 0.3 kGy,−2.3 Log
same,Log Red v Control,[4]; 0.3 kGy,−0.8 Log
same,Log Red v Inoculum,[4]; 0.3 kGy,−4.6 Log
same,"number of bacteria recovered, combination with irradiation compared to methylene blue or irradiation alone",[4]; Vicryl mesh,significantly reduced the number of bacteria recovered
same,Percent Survival 0.3 vs. 0 kGy,[1]; Conc. 20 μg/ml,0.13%
same,Post-Treatment CFU Added,[1]; Conc. 20 μg/ml,7.80E+05 CFU
same,"cfu recovered, 0.3 kGy",[1]; Conc. 20 μg/ml,3 cfu
same,"cfu recovered, 0 kGy",[1]; Conc. 20 μg/ml,2250 cfu
same,Avg CFU Rec,"[5]; 0 kGy, Vicryl mesh",7.40E+05 CFU
same,Avg Log CFU,"[5]; 0 kGy, Vicryl mesh",5.72 Log CFU
same,cfu contained in sample after incubation,"[5]; 50 μg/ml methylene blue, 2 hours at room temperature, PBS, untreated 1.8×10^9",1.6×10^9 cfu/ml
same,effect of incubation on the bacterial number,[5]; [6],did not significantly affect the bacterial number
same,Avg Log CFU,"[5]; 0.1 kGy, Vicryl mesh",3.90 Log CFU
same,Avg CFU Rec,"[5]; 0.2 kGy, Vicryl mesh",1.83E+03 CFU
same,Avg Log CFU,"[5]; 0.2 kGy, Vicryl mesh",3.08 Log CFU
same,effect on bacterial recovery,"[5]; methylene blue, Vicryl mesh",small effect on bacterial recovery
same,recovery from unirradiated sample,"[5]; methylene blue-treated, 0 kGy, Vicryl mesh, control 15%",4.6%
same,Inoculum,[5]; spotted onto Vicryl mesh,1.60E+07 CFU
"Cc1cc2nc3c(=O)[nH]c(=O)nc-3n(C[C@H](O)[C@H](O)[C@H](O)CO)c2cc1C [Riboflavin, riboflavin]",Percent Survival 0.3 vs. 0 kGy,[1]; Conc. 200 μg/ml,0.28%
same,Post-Treatment CFU Added,[1]; Conc. 200 μg/ml,8.50E+05 CFU
same,"cfu recovered, 0.3 kGy",[1]; Conc. 200 μg/ml,3 cfu
same,"cfu recovered, 0 kGy",[1]; Conc. 200 μg/ml,1080 cfu
same,Percent Survival 0.3 vs. 0 kGy,[1]; Conc. 1000 μg/ml,0.83%
same,Post-Treatment CFU Added,[1]; Conc. 1000 μg/ml,8.00E+05 CFU
same,"cfu recovered, 0.3 kGy",[1]; Conc. 1000 μg/ml,9 cfu
same,"cfu recovered, 0 kGy",[1]; Conc. 1000 μg/ml,1080 cfu
"O=[N+]([O-])[O-].[Na+] [Sodium Nitrate, sodium nitrate]",enhancement of the killing efficiency of the irradiation,[1],greatest effect
same,Percent Survival 0.3 vs. 0 kGy,[1]; Conc. 5000 μg/ml,0.00%
same,Post-Treatment CFU Added,[1]; Conc. 5000 μg/ml,8.15E+05 CFU
same,"cfu recovered, 0.3 kGy",[1]; Conc. 5000 μg/ml,0 cfu
same,"cfu recovered, 0 kGy",[1]; Conc. 5000 μg/ml,420 cfu
"Cc1cc2nc3ccc(N(C)C)cc3[s+]c2cc1N.[Cl-] [Toluidine Blue, toluidine blue]",enhancement of the killing efficiency of the irradiation,[1],greatest effect
same,Percent Survival 0.3 vs. 0 kGy,[1]; Conc. 20 μg/ml,0.00%
same,Post-Treatment CFU Added,[1]; Conc. 20 μg/ml,7.70E+05 CFU
same,"cfu recovered, 0.3 kGy",[1]; Conc. 20 μg/ml,0 cfu
same,"cfu recovered, 0 kGy",[1]; Conc. 20 μg/ml,87 cfu
same,Percent Survival 0.3 vs. 0 kGy,[1]; Conc. 100 μg/ml,0.00%
same,Post-Treatment CFU Added,[1]; Conc. 100 μg/ml,4.65E+05 CFU
same,"cfu recovered, 0.3 kGy",[1]; Conc. 100 μg/ml,0 cfu
same,"cfu recovered, 0 kGy",[1]; Conc. 100 μg/ml,72 cfu
